Measurements from the NIST ThermoML archive (doi:10.1016/j.fluid.2005.05.012).
“And” between values parts separate entries of the source, which are not always exact repeats. Equal values may be shown once. Numbers after ± are expanded uncertainties.

Key:
[1] = 101.33 kPa, Liquid
[2] = xn = mol fraction of the nth substance listed; details: 101.33 kPa, Liquid, x1 = 1

Row | SMILES | mass density ([1]; 293.15 K) | viscosity ([1]; 293.15 K) [mPa·s] | mass density ([1]; 298.15 K) [kg/m3] | viscosity ([1]; 298.15 K) [mPa·s] | mass density ([1]; 303.15 K) | viscosity ([1]; 303.15 K) [mPa·s] | mass density ([2]; 293.15 K) [kg/m3] | viscosity ([2]; 293.15 K) [mPa·s] | mass density ([2]; 298.15 K) [kg/m3] | viscosity ([2]; 298.15 K) [mPa·s] | mass density ([2]; 303.15 K) [kg/m3] | viscosity ([2]; 303.15 K) [mPa·s]
1 | CC(C)CO [2-methyl-1-propanol] | 801.58 ± 0.57 kg/m3 | 3.994 ± 0.044 | 798.09 ± 0.57 | 3.334 ± 0.037 | 794.09 ± 0.58 kg/m3 | 2.794 ± 0.032 | – | – | – | – | – | –
2 | CN1CCNCC1 [N-methylpiperazine] | 903.8 ± 0.36 kg/m3 and 903.79 ± 0.36 kg/m3 and 903.78 ± 0.36 kg/m3 | 2.1 ± 0.024 | 899.8 ± 0.37 | 1.841 ± 0.021 | 894.52 ± 0.38 kg/m3 and 894.54 ± 0.38 kg/m3 and 894.55 ± 0.38 kg/m3 | 1.624 ± 0.019 | – | – | – | – | – | –
3 | CCCCO [butan-1-ol] | 809.97 ± 0.55 kg/m3 | 2.938 ± 0.033 | 806.15 ± 0.56 | 2.572 ± 0.029 | 802.14 ± 0.57 kg/m3 | 2.271 ± 0.026 | – | – | – | – | – | –
4 | CCO [ethanol] | 789.32 ± 0.59 kg/m3 | 1.17 ± 0.014 | 785.06 ± 0.6 | 1.078 ± 0.013 | 780.68 ± 0.61 kg/m3 | 0.982 ± 0.012 | – | – | – | – | – | –

Now from value to compound:

Row | mass density ([1]; 293.15 K) | viscosity ([1]; 293.15 K) [mPa·s] | mass density ([1]; 298.15 K) [kg/m3] | viscosity ([1]; 298.15 K) [mPa·s] | mass density ([1]; 303.15 K) | viscosity ([1]; 303.15 K) [mPa·s] | mass density ([2]; 293.15 K) [kg/m3] | viscosity ([2]; 293.15 K) [mPa·s] | mass density ([2]; 298.15 K) [kg/m3] | viscosity ([2]; 298.15 K) [mPa·s] | mass density ([2]; 303.15 K) [kg/m3] | viscosity ([2]; 303.15 K) [mPa·s] | SMILES
5 | 791.09 ± 0.59 kg/m3 | 0.593 ± 0.008 | 786.48 ± 0.6 | 0.551 ± 0.008 | 781.22 ± 0.61 kg/m3 | 0.509 ± 0.008 | – | – | – | – | – | – | CO [methanol]
6 | 803.79 ± 0.56 kg/m3 | 2.194 ± 0.025 | 799.74 ± 0.57 | 1.945 ± 0.023 | 795.68 ± 0.58 kg/m3 | 1.73 ± 0.02 | – | – | – | – | – | – | CCCO [propan-1-ol]
7 | – | – | – | – | – | – | 803.79 ± 0.56 | 2.194 ± 0.025 | 799.74 ± 0.57 | 1.945 ± 0.023 | 795.68 ± 0.58 | 1.73 ± 0.02 | CCCO [propan-1-ol] + CN1CCNCC1
8 | 785.84 ± 0.6 kg/m3 | 2.405 ± 0.028 | 781.3 ± 0.61 | 2.062 ± 0.024 | 777.41 ± 0.61 kg/m3 | 1.782 ± 0.021 | – | – | – | – | – | – | CC(C)O [propan-2-ol]
9 | – | – | – | – | – | – | 785.84 ± 0.6 | 2.405 ± 0.028 | 781.3 ± 0.61 | 2.062 ± 0.024 | 777.41 ± 0.61 | 1.782 ± 0.021 | CC(C)O [propan-2-ol] + CN1CCNCC1
